Laboratory results reported in patent US10112950B2, “Substituted imidazo[1,2-a]pyrazines as LSD1 inhibitors” (Incyte Corporation, priority 2014, dated 2018).

Each molecule was assayed against LSD-1 enzyme (Homo sapiens (Human), UniProt O60341) (assay: LANCE LSD1/KDM1A demethylase assay (LSD1 histone demethylase biochemical assay)). Details: 1 nM LSD-1 enzyme, 1 hour preincubation at 25° C., 0.4 μM Biotin-labeled Histone H3 peptide substrate.
Procedure: LSD1 Histone Demethylase Biochemical Assay
LANCE LSD1/KDM1A demethylase assay-10 μL of 1 nM LSD-1 enzyme (ENZO BML-SE544-0050) in the assay buffer (50 mM Tris, pH 7.5, 0.01% Tween-20, 25 mM NaCl, 5 mM DTT) were preincubated for 1 hour at 25° C. with 0.8 μL compound/DMSO dotted in black 384 well polystyrene plates. […] Reactions were stopped by addition of 10 μL 1× LANCE Detection Buffer (PerkinElmer CR97-100) supplemented with 1.5 nM Eu-anti-unmodified H3K4 Antibody (PerkinElmer TRF0404), and 225 nM LANCE Ultra Streptavidin (PerkinElmer TRF102) along with 0.9 mM Tranylcypromine-HCl (Millipore 616431). After stopping the reactions plates were incubated for 30 minutes and read on a PHERAstar FS plate reader (BMG Labtech).
Molecule `CN1CCC[C@@H](COc2nc(-c3ccc(C#N)cc3)c(-c3ccc4c(c3)C(O)CC4)n3ccnc23)C1` (stereo partly drawn) [Example 73, 4-(5-(3-hydroxy-2,3-dihydro-1H-1-inden-5-yl)-8-{[(3R)-1-methylpiperidin-3-yl]methoxy}imidazo[1,2-a]pyrazin-6-yl)benzonitrile] has an IC50 of no more than 0.05 µM.
Molecule `CNC(=O)c1cn2c(-c3ccc(C)cc3)c(-c3ccc(C#N)cc3)nc(OC[C@@H]3CCNC3)c2n1` [Example 37, 6-(4-cyanophenyl)-N-methyl-5-(4-methylphenyl)-8-[(3R)-pyrrolidin-3-ylmethoxy]imidazol-[1,2-a]pyrazine-2-carboxamide] has an IC50 of no more than 0.05 µM.
`CN(C)C1CCN(c2nc(-c3ccc(C#N)cc3)c(-c3ccc4c(c3)c(CO)nn4C)n3ccnc23)CC1` [Example 110, 4-{8-[4-(dimethylamino)piperidin-1-yl]-5-[3-(hydroxymethyl)-1-methyl-1H-indazol-5-yl]imidazo[1,2-a]pyrazin-6-yl}benzonitrile] was tested, and the IC50 was no more than 0.05 µM.
`Cc1ccc(-c2c(-c3ccc(C#N)cc3)nc(OC[C@@H]3CCNC3)c3nc(CNCC4CC4)cn23)cc1` [Example 44, 4-{2-{[(cyclopropylmethyl)amino]methyl}-5-(4-methylphenyl)-8-[(3R)-pyrrolidin-3-ylmethoxy]imidazo[1,2-a]pyrazin-6-yl}benzonitrile] gave an IC50 of no more than 0.05 µM.
For `COC(=O)N(C)Cc1ccc(-c2c(-c3ccc(C#N)cc3)nc(OC[C@@H]3CCCN(C)C3)c3nccn23)cc1F` [Example 85, methyl [4-(6-(4-cyanophenyl)-8-{[(3R)-1-methylpiperidin-3-yl]methoxy}imidazo[1,2-a]pyrazin-5-yl)-2-fluorobenzyl]methylcarbamate], the IC50 was no more than 0.05 µM.
With `COc1ncc(-c2c(-c3ccc(C#N)cc3)nc(OC[C@@H]3CCCN(C)C3)c3nccn23)cc1O` [Example 119, 4-(5-(5-hydroxy-6-methoxypyridin-3-yl)-8-{[(3R)-1-methylpiperidin-3-yl]methoxy}imidazo[1,2-a]pyrazin-6-yl)benzonitrile] the IC50 was no more than 0.05 µM.
Work on `Cc1cc(-c2c(-c3ccc(C#N)cc3)nc(N3CCC(N(C)C)CC3)c3nccn23)cnc1C` [Example 92, 4-[8-[4-(dimethylamino)piperidin-1-yl]-5-(5,6-dimethylpyridin-3-yl)imidazo[1,2-a]pyrazin-6-yl]benzonitrile] yielded an IC50 of no more than 0.05 µM.
For `Cc1ccc(-c2c(-c3ccc(C#N)cc3)nc(N3CCC4(CCNC4)C3)c3nccn23)cc1` (stereo not drawn) [Example 19, 4-[8-(2,7-diazaspiro[4.4]non-2-yl)-5-(4-methylphenyl)imidazo[1,2-a]pyrazin-6-yl]benzonitrile], the IC50 was no more than 0.05 µM.
`CN(C)C1CCN(c2nc(-c3ccc(C#N)cc3)c(-c3cnc4c(ccn4C)c3)n3ccnc23)CC1` [Example 112, 4-[8-[4-(dimethylamino)piperidin-1-yl]-5-(1-methyl-1H-pyrrolo[2,3-b]pyridin-5-yl)imidazo[1,2-a]pyrazin-6-yl]benzonitrile] was tested, and the IC50 was no more than 0.05 µM.
For `COc1ccc(-c2c(-c3ccc(C#N)cc3)nc(OC[C@@H]3CCNC3)c3nccn23)cc1` [Example 30, 4-{5-(4-methoxyphenyl)-8-[(3R)-pyrrolidin-3-ylmethoxy]imidazol[1,2-a]pyrazin-6-yl}benzonitrile], the IC50 was no more than 0.05 µM.
`Cc1ccc(-c2c(-c3ccc(C#N)cc3)nc(OC[C@@H]3CCCN(C)C3)c3nccn23)cc1C(C)O` (stereo partly drawn) [Example 87, 4-(5-[3-(1-hydroxyethyl)-4-methylphenyl]-8-{[(3R)-1-methylpiperidin-3-yl]methoxy}imidazo[1,2-a]pyrazin-6-yl)benzonitrile] showed an IC50 of no more than 0.05 µM.
`Cc1nc2cc(-c3c(-c4ccc(C#N)cc4)nc(N4CCC(N(C)C)CC4)c4nccn34)ccc2n1C` [Example 115, 4-[8-[4-(dimethylamino)piperidin-1-yl]-5-(1,2-dimethyl-1H-benzimidazol-5-yl)imidazo[1,2-a]pyrazin-6-yl]benzonitrile] showed an IC50 of no more than 0.05 µM.
Molecule `CN(C)C1CCN(c2nc(-c3ccc(C#N)cc3)c(-c3ccc4c(c3)C(O)CC4)n3ccnc23)CC1` (racemic) [Example 95, 4-[8-[4-(dimethylamino)piperidin-1-yl]-5-(3-hydroxy-2,3-dihydro-1H-inden-5-yl)imidazo[1,2-a]pyrazin-6-yl]benzonitrile] has an IC50 of no more than 0.05 µM.
In the case of `Cc1ccc(-c2c(-c3ccc(C#N)cc3)nc(N3CCC(N(C)C)CC3)c3nccn23)cc1CO` [Example 96, 4-{8-[4-(dimethylamino)piperidin-1-yl]-5-[3-(hydroxymethyl)-4-methylphenyl]imidazo[1,2-a]pyrazin-6-yl}benzonitrile], the IC50 is reported as no more than 0.05 µM.
`CN(C)C1CCN(c2nc(-c3ccc(C#N)cc3)c(-c3ccc4c(c3)CC(O)C4)n3ccnc23)CC1` (racemic) [Example 93, 4-[8-[4-(dimethylamino)piperidin-1-yl]-5-(2-hydroxy-2,3-dihydro-1H-inden-5-yl)imidazo[1,2-a]pyrazin-6-yl]benzonitrile] gave an IC50 of no more than 0.05 µM.
`Cc1ccc(-c2c(-c3ccc(C#N)cc3)nc(N3CCC(N(C)C)CC3)c3nccn23)cc1` [Example 14, 4-[8-[4-(dimethylamino)piperidin-1-yl]-5-(4-methylphenyl)imidazo[1,2-a]pyrazin-6-yl]benzonitrile] was tested, and the IC50 was no more than 0.05 µM.
`Cc1ccc(-c2c(-c3ccc(C#N)cc3)nc(OC3CCN(C)C3)c3nccn23)cc1` (stereo not drawn) [Example 7, 4-{5-(4-methylphenyl)-8-[(1-methylpyrrolidin-3-yl)oxy]imidazo[1,2-a]pyrazin-6-yl}benzonitrile] was tested, and the IC50 was no more than 0.05 µM.
`CN(C)C1CCN(c2nc(-c3ccc(C#N)cc3)c(-c3ccc4c(c3)c(N)nn4C)n3ccnc23)CC1` [Example 68, 4-{5-(3-amino-1-methyl-1H-indazol-5-yl)-8-[4-(dimethylamino)piperidin-1-yl]imidazo[1,2-a]pyrazin-6-yl}benzonitrile] showed an IC50 of no more than 0.05 µM.
In the case of `Cc1ccc(-c2c(-c3ccc(C#N)cc3)nc(OC[C@@H]3CCN(C)C3)c3nccn23)cc1` [Example 11, 4-(5-(4-methylphenyl)-8-{[(3R)-1-methylpyrrolidin-3-yl]methoxy}imidazo[1,2-a]pyrazin-6-yl)benzonitrile], the IC50 is reported as no more than 0.05 µM.
With `Cc1ccc(-c2c(-c3ccc(C#N)cc3)nc(OC[C@H]3CCCNC3)c3nccn23)cc1` [Example 10, 4-{5-(4-methylphenyl)-8-[(3S)-piperidin-3-ylmethoxy]imidazol[1,2-a]pyrazin-6-yl}benzonitrile] the IC50 was no more than 0.05 µM.
Molecule `CN(C)C1CCCN(c2nc(-c3ccc(C#N)cc3)c(-c3ccc(N4CCCC4=O)nc3)n3ccnc23)C1` (stereo not drawn) [Example 99, 4-{8-[3-(dimethylamino)piperidin-1-yl]-5-[6-(2-oxopyrrolidin-1-yl)pyridin-3-yl]imidazo[1,2-a]pyrazin-6-yl}benzonitrile] has an IC50 of no more than 0.05 µM.
Molecule `CN(C)C1CCN(c2nc(-c3ccc(C#N)cc3)c(-c3cnc4c(c3)oc(=O)n4C)n3ccnc23)CC1` [Example 66, 4-[8-[4-(dimethylamino)piperidin-1-yl]-5-(3-methyl-2-oxo-2,3-dihydro[1,3]oxazolo[4,5-b]pyridin-6-yl)imidazo[1,2-a]pyrazin-6-yl]benzonitrile] has an IC50 of no more than 0.05 µM.
Molecule `Cc1cc(-c2c(-c3ccc(C#N)cc3)nc(OC[C@@H]3CCCN(C)C3)c3nccn23)ccc1CO` [Example 72, 4-(5-[4-(hydroxymethyl)-3-methylphenyl]-8-{[(3R)-1-methylpiperidin-3-yl]methoxy}imidazo[1,2-a]pyrazin-6-yl)benzonitrile] has an IC50 of no more than 0.05 µM.
`Cc1ccc(-c2c(-c3ccc(C#N)cc3)nc(OC[C@@H]3CCCN(C)C3)c3nccn23)cc1` [Example 12, 4-(5-(4-methylphenyl)-8-{[(3R)-1-methylpiperidin-3-yl]methoxy}imidazo[1,2-a]pyrazin-6-yl)benzonitrile] was tested, and the IC50 was no more than 0.05 µM.
`Cc1ccc(-c2c(-c3ccc(C#N)cc3)nc(OC[C@@H]3CCNC3)c3nc(CCN(C)C)cn23)cc1` [Example 47, 4-{2-[2-(dimethylamino)ethyl]-5-(4-methylphenyl)-8-[(3R)-pyrrolidin-3-ylmethoxy]imidazo[1,2-a]pyrazin-6-yl}benzonitrile] showed an IC50 of no more than 0.05 µM.
For `Cc1ccc(-c2c(-c3ccc(C#N)cc3)nc(OC[C@@H]3CCNC3)c3nc(CNc4ccon4)cn23)cc1` [Example 45, 4-{2-[(isoxazol-3-ylamino)methyl]-5-(4-methylphenyl)-8-[(3R)-pyrrolidin-3-ylmethoxy]imidazo[1,2-a]pyrazin-6-yl}benzonitrile], the IC50 was no more than 0.05 µM.
`Cc1ccc(-c2c(-c3ccc(C#N)cc3)nc(SC[C@@H]3CCNC3)c3nccn23)cc1` [Example 13, 4-(5-(4-methylphenyl)-8-{[(3R)-pyrrolidin-3-ylmethyl]thio}imidazo[1,2-a]pyrazin-6-yl)benzonitrile] was tested, and the IC50 was no more than 0.05 µM.
With `Cc1ccc(-c2c(-c3ccc(C#N)cc3)nc(OC[C@@H]3CCCN(C)C3)c3nccn23)c(CO)c1` [Example 90, 4-(5-[2-(hydroxymethyl)-4-methylphenyl]-8-{[(3R)-1-methylpiperidin-3-yl]methoxy}imidazo[1,2-a]pyrazin-6-yl)benzonitrile] the IC50 was no more than 0.05 µM.
With `Cc1ccc(-c2c(-c3ccc(C#N)cc3)nc(OC[C@@H]3CCNC3)c3nc(CN4CCC4)cn23)cc1` [Example 43, 4-{2-(azetidin-1-ylmethyl)-5-(4-methylphenyl)-8-[(3R)-pyrrolidin-3-ylmethoxy]imidazol[1,2-a]pyrazin-6-yl}benzonitrile] the IC50 was no more than 0.05 µM.
Work on `Cc1ccc(-c2c(-c3ccc(C#N)cc3)nc(OC[C@@H]3CCCNC3)c3nccn23)cc1` [Example 9, 4-{5-(4-methylphenyl)-8-[(3R)-piperidin-3-ylmethoxy]imidazo[1,2-a]pyrazin-6-yl}benzonitrile] yielded an IC50 of no more than 0.05 µM.
